Experimental findings from publication PMC7817263, “Analysis of the Anti-Inflammatory and Analgesic Mechanism of Shiyifang Vinum Based on Network Pharmacology” (Evidence-based Complementary and Alternative Medicine : eCAM, 2021) are described below.

pIC50: −log10 of the molar value.

For the assay, the target named is T1, COX-2 (Homo sapiens, UniProt P35354).
T1 construct: purchased Beyotime Biotechnology (Shanghai, China)
T1 sequence (P35354 18-604): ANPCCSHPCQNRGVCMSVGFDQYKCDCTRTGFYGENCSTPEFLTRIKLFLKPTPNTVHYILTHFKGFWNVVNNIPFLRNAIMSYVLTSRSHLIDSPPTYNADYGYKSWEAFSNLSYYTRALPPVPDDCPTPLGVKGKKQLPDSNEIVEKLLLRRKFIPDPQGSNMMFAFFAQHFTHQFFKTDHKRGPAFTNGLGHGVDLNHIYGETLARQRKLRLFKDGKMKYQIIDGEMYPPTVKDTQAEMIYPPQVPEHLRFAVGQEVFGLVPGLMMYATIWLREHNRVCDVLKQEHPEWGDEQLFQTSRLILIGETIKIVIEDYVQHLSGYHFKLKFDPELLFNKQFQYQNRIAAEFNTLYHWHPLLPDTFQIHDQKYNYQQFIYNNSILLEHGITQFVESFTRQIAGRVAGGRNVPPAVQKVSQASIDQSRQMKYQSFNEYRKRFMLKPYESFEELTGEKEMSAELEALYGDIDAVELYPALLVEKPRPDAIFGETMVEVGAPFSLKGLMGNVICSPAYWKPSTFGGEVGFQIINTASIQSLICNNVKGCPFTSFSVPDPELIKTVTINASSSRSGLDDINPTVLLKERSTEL
As to the kind of experiment: COX-2 inhibitor screening kit, in vitro enzyme activity test (fluorescence). It counts as biochemical. The conditions noted are these: inhibition of COX-2 enzyme activity, probit regression. As to the method: The COX-2 inhibitory activities of four monomer compounds and Shiyifang Vinum were detected with the COX-2 inhibitor screening kit. The blank control, 100% enzyme activity control, positive inhibition control, and sample wells were prepared, with three repeat wells in each group.
As a reminder, the pIC50 is the IC50 on a negative log10 scale, so that one unit is a factor of ten. A lower pIC50 goes with a high IC50. In the case of `O=c1c(O)c(-c2ccc(O)c(O)c2)oc2cc(O)cc(O)c12` [Quercetin, quercetin], the pIC50 is 5.40. Take `O=c1cc(-c2ccc(O)c(O)c2)oc2cc(O)cc(O)c12` [Luteolin, luteolin]: the pIC50 was 4.97. This pIC50 is 0.43 log units lower than that of the compound before. `O=c1c(O)c(-c2ccc(O)cc2)oc2cc(O)cc(O)c12` [Kaempferol, kaempferol]: the pIC50 is 4.51.
